Experiment [1] concerns Monocytes. As to the kind of experiment: Chemoattractant-induced rapid adhesion of monocytes to fibrinogen. Type of experiment: cell-based. As to conditions: Homo sapiens, Monocyte, read-out: Inhibition of Adhesion (%) Monocytes (fMLP). As for the experimental part:
Adhesion was performed on purified integrin ligands and was evaluated as reported in Constantin G. et al., Immunity, 16, 759-769, 2000. Briefly, primary naïve lymphocytes, polymorphonuclear neutrophils (PMNs) or monocytes were isolated form healthy donors. In other experiments, murine autoreactive T cells were obtained from SJL mice immunized with PLP139-151 as described (Piccio L. et al., J. Immunol. 168, 1940-1949, 2002). Cells were resuspended at 4×10^6/ml in PBS, CaCl2, MgCl2 1 mM, 10% FCS, pH 7.2. Adhesion assays were performed on eighteen well glass slides coated overnight at 4° C. with ligands for CR3 (fibrinogen) or LFA-1 (ICAM-1). 20 μl of cell suspension were added to the wells and stimulated at 37° C. with 5 μl of agonists prior to washing, fixation and computer-assisted enumeration of bound cells.
Integrin activation was measured as induction of rapid adhesion triggered by the classical chemoattractant N-formyl-L-methionyl-L-leucyl-phenylalanine (fMLP) (100 nM) or by the CC chemokine MIP3β (CCL19, 1 μM). PMNs and monocytes were triggered to adhere to fibrinogen (CR3 ligand); naive human lymphocytes or murine encephalitogenic T cells were triggered to adhere to ICAM-1 (LFA-1 ligand). Triggered adhesion was evaluated after 2 min of stimulation under static conditions. The cells were pretreated at 37° C. for 30-60 min with the indicated concentrations of the test compound. Results are expressed as percentage of inhibition over control (=100%) and are the mean of three experiments in the case of human leukocytes. Results are expressed as mean counts and are the mean counts±S.D of three experiments and are the mean of three experiments in the case of murine encephalitogenic lymphocytes.

The test system of another experiment is Lymphocytes. As to the kind of experiment: Chemotaxis assay, lymphocytes (transwell). Type of experiment: cell-based. To be noted: Homo sapiens, Lymphocyte. How it is done:
(§1) PMNs and monocytes migration was assessed using 1 or 3-μm pore size transwells (Bio-Coat Becton-Dickinson), while lymphocytes by using 5-μm pore size transwells.
(§2) Cells were in RPMI1640, containing 10% heat-inactivated Fetal Calf Serum (FCS) and 20 mM HEPES, pH 7.3, at 2×10^6/ml. 100 μl of cell suspension were added to the top well, and 600 μl of medium, containing chemoaftractants and test compound, were added to the bottom well. Migration was evaluated after 2 h for PMNs and monocytes and after 4 h for lymphocytes. fMLP 10 nM (PMNs and monocytes) and MIP-3β 100 nM (lymphocytes) were utilized as chemoattractants. After fixation with 1.5% glutaraldehyde, migrated cells were counted by fluorescence-activated cell sorting using polystyrene beads (Polyscience) as an internal standard (Campbell J. J. et al. J. Cell. Biol. 134, 255-266, 1996; Laudanna C. et al. J. Biol. Chem. 273, 46, 30306-30315, 1998).
(§3) Results are expressed as percentage of inhibition over control (=100%), and are the mean of three experiments.

The subject of experiment [2] is Monocytes. The experiment is described as follows: Chemotaxis assay, monocytes (transwell). In kind it is cell-based. As to conditions: Homo sapiens, Monocyte. How it is done:
as §1, §2, §3

For experiment [3], the system named is murine encephalitogenic T lymphocytes in inflamed brain venules. The experiment is described as follows: Intravital microscopy: lymphocyte recruitment in inflamed brain microcirculation. In kind it is in vivo, mice (SJL). As to conditions: cells treated with 50 μM for 1 h. As for the experimental part: Murine encephalitogenic T lymphocytes were labeled with either green CMFDA (5-chloromethylfluorescein diacetate; Molecular Probes) or orange CMTMR (5-(and-6)-(((4-chloromethyl)benzoyl)amino)tetramethylrhodamine) (Molecular Probes). SJL young females (Harlan-Nossan, Udine, Italy) were housed and used according to current European Community rules. In order to inflame brain endothelium, mice were injected intraperitoneally with 12 μg lipopolysaccharide (LPS) (Escherichia coli 026:B6; Sigma) 5 to 6 hours before the intravital experiment was started. […] Fluorescence-labeled cells (2×10^6)/condition were slowly injected into the carotid artery through a digital pump. Images were visualized by using a silicon-intensified target videocamera (VE-1000 SIT; Dage MTI, Michigan City, Ind.) and a Sony SSM-125CE monitor and were recorded using a digital videocassette recorder (NV-DV10000; Panasonic).
Video analysis was performed by playback of digital videotapes. Vessel diameter (D), hemodynamic parameters, and the velocities of rolling were determined by using a personal computer-based system. The velocities of 20 or more consecutive freely flowing cells per venule were calculated.
From the velocity of the fastest cell in each venule (Vfast), we calculated the mean blood flow velocities (Vm): […]. […]

One may read the inhibition as the drop in the measured response relative to a control, in per cent. As to `COC(=O)c1[nH]c2cc(OC)c(OC)cc2c1-c1ccc(OC)cc1` [Example 1], the inhibition at 2.5 µM in the experiment with Monocytes [1] ([cpd] 2.5 μM) was less than 5%; with Lymphocytes ([cpd] 2.5 μM, read-out: Inhibition of Chemotaxis (%) Lymphocytes (MIP3-β)), 11.6%; in the experiment on Monocytes [2] ([cpd] 2.5 μM, read-out: Inhibition of Chemotaxis (%) Monocytes (fMLP)) it was 10.5%. Besides, the inhibition at 5 µM in the experiment on Monocytes [1] ([cpd] 5 μM) is less than 5%; in the experiment with Lymphocytes ([cpd] 5 μM, read-out: Inhibition of Chemotaxis (%) Lymphocytes (MIP3-β) (converted)) it was 27.2%; with Monocytes [2] ([cpd] 5 μM, read-out: Inhibition of Chemotaxis (%) Monocytes (fMLP) (converted)), 15.5%. For the same compound, the inhibition at 10 µM is less than 5% in the experiment with Monocytes [1] ([cpd] 10 μM); 43.2% with Lymphocytes ([cpd] 10 μM, read-out: Inhibition of Chemotaxis (%) Lymphocytes (MIP3-β) (converted)); 18.3% in the experiment on Monocytes [2] ([cpd] 10 μM, read-out: Inhibition of Chemotaxis (%) Monocytes (fMLP) (converted)). The inhibition at 25 µM in the experiment with Monocytes [1] ([cpd] 25 μM) was less than 5%; with Lymphocytes ([cpd] 25 μM, read-out: Inhibition of Chemotaxis (%) Lymphocytes (MIP3-β) (converted)) it was 53.3%; in the experiment with Monocytes [2] ([cpd] 25 μM, read-out: Inhibition of Chemotaxis (%) Monocytes (fMLP) (converted)), 47.4%. In addition, the inhibition at 50 µM in the experiment with Monocytes [1] ([cpd] 50 μM) is less than 5%; with Lymphocytes ([cpd] 50 μM, read-out: Inhibition of Chemotaxis (%) Lymphocytes (MIP3-β) (converted)), 63.5%; in the experiment on Monocytes [2] ([cpd] 50 μM, read-out: Inhibition of Chemotaxis (%) Monocytes (fMLP) (converted)), 46.3%. For the same compound, the inhibition at 100 µM in the experiment with Monocytes [1] ([cpd] 100 μM) was less than 5%; in the experiment with Lymphocytes ([cpd] 100 μM, read-out: Inhibition of Chemotaxis (%) Lymphocytes (MIP3-β) (converted)), 86.9%; in the experiment with Monocytes [2] ([cpd] 100 μM, read-out: Inhibition of Chemotaxis (%) Monocytes (fMLP) (converted)), 75.5%. Also, the autoreactive lymphocyte rolling result in experiment [3] is recorded as “no effect”. Besides, the sticking/firm arrest result in experiment [3] is given as “highly blocked”.

These data come from patent US20080317857A1, “V-Atpase Inhibitors of Use in the Treatment of Septic Shock” (Brane Discovery S.r.l., priority 2005, published 2008).
